{"source": "patent US9730944B2", "about": "“Antiviral activity of novel bicyclic heterocycles” (priority 2010, dated 2017)", "key": {"poliovirus (PV type 3)": {"test_system": "poliovirus (PV type 3)", "assay": "microbe, parasite or virus in culture", "format": "cell-based", "conditions": "Enterovirus C, read-out: PV-3 EC50"}, "in vitro [1]": {"assay": "in vitro", "conditions": "human, PV CC50"}, "in vitro [2]": {"assay": "in vitro", "conditions": "African green monkey, PV CC50"}, "poliovirus (PV type 1)": {"test_system": "poliovirus (PV type 1)", "assay": "microbe, parasite or virus in culture", "format": "cell-based", "conditions": "Enterovirus C, read-out: PV-1 EC50"}, "poliovirus (PV type 2)": {"test_system": "poliovirus (PV type 2)", "assay": "microbe, parasite or virus in culture", "format": "cell-based", "conditions": "Enterovirus C, read-out: PV-2 EC50"}, "[3]": {"test_system": "genotype 1a H-77 replicon", "assay": "HCV-1a replicon potency in RLuc-1 cells, bioluminescence", "format": "cell-based", "conditions": "for HCV-1a Replicon Selectivity Index: CC50/EC50, genotype 1a replicon; for EC50: Hepatitis C virus, 72 h, read-out: HCV-1a Replicon EC50 (μM)"}, "[4]": {"assay": "Cytotoxicity in HCV-1a replicon cells, Promega CellTiter-Glo cell viability assay"}}, "note": "Like-named read-outs stand apart in the source and are kept apart here.", "data": [{"compound": "CC(C)CN1CCN(c2nc(N)nc3oc(-c4ccc(F)cc4)nc23)CC1", "note": "[Example 190, 5-amino-2-(4-fluorophenyl)-7-(4-isobutylpiperazin-1-yl)-oxazolo[5,4-d]pyrimidine]", "values": [{"measurement": "EC50", "setting": "poliovirus (PV type 3); HeLa", "value": 1.13, "unit": "µg/mL"}, {"measurement": "EC50", "setting": "poliovirus (PV type 3); Vero", "value": 2.79, "unit": "µg/mL"}, {"measurement": "CC50", "setting": "in vitro [1]", "value": 32.3, "unit": "µg/mL"}, {"measurement": "CC50", "setting": "in vitro [2]", "value": 130, "unit": "µg/mL"}, {"measurement": "EC50", "setting": "poliovirus (PV type 1); HeLa", "value": 1.15, "unit": "µg/mL"}, {"measurement": "EC50", "setting": "poliovirus (PV type 1); Vero", "value": 1.08, "unit": "µg/mL"}, {"measurement": "EC50", "setting": "poliovirus (PV type 2); HeLa", "value": 1.17, "unit": "µg/mL"}, {"measurement": "EC50", "setting": "poliovirus (PV type 2); Vero", "value": 1.02, "unit": "µg/mL"}]}, {"compound": "O=C(COc1ccc(Cl)cc1)N1CCN(c2ncnc3sc(-c4ccc(F)cc4)cc23)CC1", "note": "[Example 312, 2-(4-chlorophenoxy)-1-(4-(6-(4-fluorophenyl)thieno[2,3-d]pyrimidin-4-yl)piperazin-1-yl)ethanone]", "values": [{"measurement": "EC50", "setting": "poliovirus (PV type 3); HeLa", "value": "> 1.85", "unit": "µg/mL"}, {"measurement": "EC50", "setting": "poliovirus (PV type 3); Vero", "value": 2.05, "unit": "µg/mL"}, {"measurement": "CC50", "setting": "in vitro [1]", "value": "> 50", "unit": "µg/mL"}, {"measurement": "CC50", "setting": "in vitro [2]", "value": 116, "unit": "µg/mL"}, {"measurement": "EC50", "setting": "poliovirus (PV type 1); HeLa", "value": 3.77, "unit": "µg/mL"}, {"measurement": "EC50", "setting": "poliovirus (PV type 1); Vero", "value": 1.12, "unit": "µg/mL"}, {"measurement": "EC50", "setting": "poliovirus (PV type 2); HeLa", "value": 1.28, "unit": "µg/mL"}, {"measurement": "EC50", "setting": "poliovirus (PV type 2); Vero", "value": 0.68, "unit": "µg/mL"}]}, {"compound": "CCCCCc1nc2c(N3CCN(C(=O)COc4ccc(Cl)cc4)CC3)nc(N)nc2o1", "note": "[Example 188, 5-amino-7-[4-(4-chlorophenoxyacetyl)piperazin-1-yl]-2-pentyloxazolo[5,4-d]pyrimidine]", "values": [{"measurement": "EC50", "setting": "poliovirus (PV type 3); HeLa", "value": 0.48, "unit": "µg/mL"}, {"measurement": "EC50", "setting": "poliovirus (PV type 3); Vero", "value": 0.32, "unit": "µg/mL"}, {"measurement": "CC50", "setting": "in vitro [1]", "value": "> 50", "unit": "µg/mL"}, {"measurement": "CC50", "setting": "in vitro [2]", "value": 103, "unit": "µg/mL"}, {"measurement": "EC50", "setting": "poliovirus (PV type 1); HeLa", "value": 0.38, "unit": "µg/mL"}, {"measurement": "EC50", "setting": "poliovirus (PV type 1); Vero", "value": 0.14, "unit": "µg/mL"}, {"measurement": "EC50", "setting": "poliovirus (PV type 2); HeLa", "value": 0.36, "unit": "µg/mL"}, {"measurement": "EC50", "setting": "poliovirus (PV type 2); Vero", "value": 0.11, "unit": "µg/mL"}]}, {"compound": "COc1ccc(OCC(=O)N2CCN(c3ncnc4sc(CCc5ccc(F)cc5)nc34)CC2)cc1", "note": "[Example 302, 1-(4-(2-(4-fluorophenethyl)thiazolo[5,4-d]pyrimidin-7-yl)piperazin-1-yl)-2-(4-methoxyphenoxy)ethanone]", "values": [{"measurement": "EC50", "setting": "poliovirus (PV type 3); HeLa", "value": "< 0.023", "unit": "µg/mL"}, {"measurement": "EC50", "setting": "poliovirus (PV type 3); Vero", "value": 0.085, "unit": "µg/mL"}, {"measurement": "CC50", "setting": "in vitro [1]", "value": "> 50", "unit": "µg/mL"}, {"measurement": "CC50", "setting": "in vitro [2]", "value": 50, "unit": "µg/mL"}, {"measurement": "EC50", "setting": "poliovirus (PV type 1); HeLa", "value": "< 0.023", "unit": "µg/mL"}, {"measurement": "EC50", "setting": "poliovirus (PV type 1); Vero", "value": "< 0.023", "unit": "µg/mL"}, {"measurement": "EC50", "setting": "poliovirus (PV type 2); HeLa", "value": "< 0.023", "unit": "µg/mL"}, {"measurement": "EC50", "setting": "poliovirus (PV type 2); Vero", "value": "< 0.023", "unit": "µg/mL"}]}, {"compound": "C[C@@]1(O)[C@H](O)[C@@H](CO)O[C@H]1n1ccc(N)nc1=O", "note": "[2′-C-methylcytidine]", "values": [{"measurement": "EC50", "setting": "poliovirus (PV type 3); HeLa", "value": 11.4, "unit": "µg/mL"}, {"measurement": "EC50", "setting": "poliovirus (PV type 3); Vero", "value": 15.3, "unit": "µg/mL"}, {"measurement": "CC50", "setting": "in vitro [1]", "value": "> 50", "unit": "µg/mL"}, {"measurement": "CC50", "setting": "in vitro [2]", "value": "> 150", "unit": "µg/mL"}, {"measurement": "EC50", "setting": "poliovirus (PV type 1); HeLa", "value": 3.74, "unit": "µg/mL"}, {"measurement": "EC50", "setting": "poliovirus (PV type 1); Vero", "value": 3.58, "unit": "µg/mL"}, {"measurement": "EC50", "setting": "poliovirus (PV type 2); HeLa", "value": 7.27, "unit": "µg/mL"}, {"measurement": "EC50", "setting": "poliovirus (PV type 2); Vero", "value": 4.6, "unit": "µg/mL"}]}, {"compound": "COCCN1CCN(c2nc(N)nc3oc(-c4ccc(F)cc4)nc23)CC1", "note": "[Example 192, 5-amino-2-(4-fluorophenyl)-7-[4-(2-methoxyethyl)-piperazin-1-yl]-oxazolo[5,4-d]pyrimidine]", "values": [{"measurement": "EC50", "setting": "poliovirus (PV type 3); HeLa", "value": "> 50", "unit": "µg/mL"}, {"measurement": "EC50", "setting": "poliovirus (PV type 3); Vero", "value": "> 50", "unit": "µg/mL"}, {"measurement": "CC50", "setting": "in vitro [1]", "value": "> 50", "unit": "µg/mL"}, {"measurement": "CC50", "setting": "in vitro [2]", "value": 100, "unit": "µg/mL"}, {"measurement": "EC50", "setting": "poliovirus (PV type 1); HeLa", "value": "> 50", "unit": "µg/mL"}, {"measurement": "EC50", "setting": "poliovirus (PV type 1); Vero", "value": "> 50", "unit": "µg/mL"}, {"measurement": "EC50", "setting": "poliovirus (PV type 2); HeLa", "value": "> 50", "unit": "µg/mL"}, {"measurement": "EC50", "setting": "poliovirus (PV type 2); Vero", "value": "≥ 50", "unit": "µg/mL"}]}, {"compound": "CCC(c1ccc(F)cc1)c1nc2c(N3CCN(C(=O)COc4ccc(Cl)cc4)CC3)nc(N)nc2s1", "note": "(centres unmarked) [Example 150, 5-amino-2-[1-(4-fluorophenyl)propyl]-7-(4-[2-(4-chlorophenoxy)acetyl]piperazin-1-yl)thiazolo[5,4-d]pyrimidine]", "values": [{"measurement": "HCV-1a Replicon Selectivity Index", "setting": "[3]", "value": 2.0}, {"measurement": "EC50", "setting": "[3]", "value": 13.1, "unit": "µM"}, {"measurement": "CC50 at 72 h", "setting": "[4]", "value": 25.9, "unit": "µM"}]}, {"compound": "CC(C)S(=O)(=O)n1c(N)nc2ccc(/C(=N/O)c3ccccc3)cc21", "note": "[Enviroxime]", "values": [{"measurement": "EC50", "setting": "poliovirus (PV type 3); HeLa", "value": 0.12, "unit": "µg/mL"}, {"measurement": "EC50", "setting": "poliovirus (PV type 3); Vero", "value": 1.03, "unit": "µg/mL"}, {"measurement": "CC50", "setting": "in vitro [1]", "value": 21.2, "unit": "µg/mL"}, {"measurement": "CC50", "setting": "in vitro [2]", "value": "> 150", "unit": "µg/mL"}, {"measurement": "EC50", "setting": "poliovirus (PV type 1); HeLa", "value": 0.13, "unit": "µg/mL"}, {"measurement": "EC50", "setting": "poliovirus (PV type 1); Vero", "value": 0.11, "unit": "µg/mL"}, {"measurement": "EC50", "setting": "poliovirus (PV type 2); HeLa", "value": 0.041, "unit": "µg/mL"}, {"measurement": "EC50", "setting": "poliovirus (PV type 2); Vero", "value": 0.04, "unit": "µg/mL"}]}, {"compound": "Cc1cccc(NC(=O)N2CCN(c3nc(N)nc4sc(CCc5ccc(F)cc5)nc34)CC2)c1", "note": "[Example 133, 5-amino-2-[2-(4-fluorophenyl)ethyl]-7-(4-m-tolylcarbamoylpiperazin-1-yl)-thiazolo[5,4-d]pyrimidine]", "values": [{"measurement": "HCV-1a Replicon Selectivity Index", "setting": "[3]", "value": 1.5}, {"measurement": "EC50", "setting": "[3]", "value": 10.7, "unit": "µM"}, {"measurement": "CC50 at 72 h", "setting": "[4]", "value": 15.8, "unit": "µM"}]}, {"compound": "Nc1nc(N2CCN(C(=O)COc3ccc(Cl)cc3)CC2)c2nc(-c3cccnc3)sc2n1", "note": "[Example 121a, 5-amino-7-[4-(4-chlorophenoxyacetyl)piperazin-1-yl]-2-(pyridine-3-yl)thiazolo[5,4-d]pyrimidine]", "values": [{"measurement": "HCV-1a Replicon Selectivity Index", "setting": "[3]", "value": ">888"}, {"measurement": "EC50", "setting": "[3]", "value": 0.05, "unit": "µM"}, {"measurement": "CC50 at 72 h", "setting": "[4]", "value": "> 44.4", "unit": "µM"}]}]}
